Experimental data from US20190231668A1, “SKIN WHITENING COMPOSITION CONTAINING MANNOSYLERYTHRITOL LIPID” (AMOREPACIFIC CORPORATION, priority 2016, published 2019).

Tested on: B16F10 (melanoma cell) cell line
Assay: Inhibitory effect on melanin production in α-MSH-stimulated melanin pigment producing cells
Assay type: cell-based, mouse
Settings: medium with α-MSH (200 nM) and 100 ppm of substance, untreated medium = 100%, α-MSH alone about 270%
Method: The inhibitory effect on melanin production in melanin pigment producing cells by the mannosylerythritol lipid (hereinafter referred to as MEL) was measured. As the cell line and serum, the mouse-derived B16F10 (melanoma cell) cell line purchased from ATCC and FBS (Cat No. 30-2020) were used. The DMEM (Cat No. 11995) required for cell culture and antibiotic-antifungal agent (Cat No. 15240-062) were purchased from Invitrogen company (GIBCO). The cell line was cultured under the conditions of 37° C., 10% CO2. […] Kojic acid was used as a positive control. After the fifth day, 1N NaOH was added and reacted at 60° C. for 2 hours to dissolve the melanin contained in the cells, and then measured the amount of melanin by measuring the absorbance at 405 nm. […] It was confirmed that the expression amount of melanin pigment by B16F10 cells in the medium supplemented with α-MSH and 100 ppm of kojic acid is about 110%, and thus the expression of melanin pigment was inhibited, and it was confirmed that the expression amount of melanin pigment in the medium supplemented with α-MSH and 1 ppm of MEL was about 180%, and the expression amount of melanin pigment in the medium supplemented with α-MSH and 5 ppm of MEL was about 90% and thus the expression of melanin pigment was inhibited.

`O=c1cc(CO)occ1O` [kojic acid] was tested, and the “expression amount of melanin pigment” value was “about 110%”.
